According to patent publication US20110306568A1, “COMPOSITION CONTAINING GLUCOSYLGLYCEROL” (priority 2008, published 2011):

How the values were obtained:
Assay type in all cases: cell-based
[1] = system: Aspergillus niger; test: Viable count of mold Aspergillus niger in aqueous glucosylglycerol solution with 3.5% w/w glucose; conditions: A. niger; for Colony-forming units (CFU/g): 50% w/w glucosylglycerol, 3.5% w/w glucose, aqueous
From the text: (§1) In addition, a another test was analogously conducted with mold Aspergillus niger and yeast fungi Candida albicans , with an aqueous solution containing 50% w/w of 2-O-α-D glucosylglycerol and 3.5% w/w of glucose being used in this case.

[2] = system: Candida albicans; test: Viable count of yeast fungi Candida albicans in aqueous glucosylglycerol solution with 3.5% w/w glucose; conditions: C. albicans; for Colony-forming units (CFU/g): 50% w/w glucosylglycerol, 3.5% w/w glucose, aqueous
From the text: as §1

[3] = system: E. coli DSM 1576; test: Viable count of E. coli DSM 1576 in aqueous glucosylglycerol solutions with 5% w/w glucose; conditions: for Colony-forming units (CFU/g): 5% w/w glucose, aqueous
[4] = glucosylglycerol of high concentration

In the case of OCC(CO)O[C@H]1O[C@H](CO)[C@@H](O)[C@H](O)[C@H]1O [Glucosylglycerol, 2-O-α-D-glucosylglycerol], the “Colony-forming units (CFU/g)” value ([1]; 0 days) is reported as 750,000 CFU/g, the “Colony-forming units (CFU/g)” value ([1]; 2 days) is reported as 350,000 CFU/g and the “Colony-forming units (CFU/g)” value ([1]; 7 days) is reported as 200,000 CFU/g. The “Colony-forming units (CFU/g)” value ([1]; 14 days) was 170,000 CFU/g, the “Colony-forming units (CFU/g)” value ([1]; 21 days) was 160,000 CFU/g and the “Colony-forming units (CFU/g)” value ([1]; 28 days) was 12,000 CFU/g. For the same compound, the fungicidal effect [1, 4] was “fungicidal effects”, the “Colony-forming units (CFU/g)” value ([2]; 0 days) was 750,000 CFU/g and the “Colony-forming units (CFU/g)” value ([2]; 2 days) was 320,000 CFU/g. For the same compound, the “Colony-forming units (CFU/g)” value ([2]; 7 days) was 200,000 CFU/g, the “Colony-forming units (CFU/g)” value ([2]; 14 days) was 190,000 CFU/g and the “Colony-forming units (CFU/g)” value ([2]; 21 days) was 120,000 CFU/g. For the same compound, the “Colony-forming units (CFU/g)” value ([2]; 28 days) was 45,000 CFU/g, the fungicidal effect [2, 4] was “fungicidal effects” and the “Colony-forming units (CFU/g)” value ([3]; 20% w/w glucosylglycerol, 0 days) was 300,000 CFU/g. The “Colony-forming units (CFU/g)” value ([3]; 20% w/w glucosylglycerol, 2 days) was 280,000 CFU/g, the “Colony-forming units (CFU/g)” value ([3]; 20% w/w glucosylglycerol, 7 days) was 100,000 CFU/g and the “Colony-forming units (CFU/g)” value ([3]; 20% w/w glucosylglycerol, 14 days) was 5,000 CFU/g. The “Colony-forming units (CFU/g)” value ([3]; 20% w/w glucosylglycerol, 21 days) was <100 CFU/g, the “Colony-forming units (CFU/g)” value ([3]; 20% w/w glucosylglycerol, 28 days) was <100 CFU/g and the “Colony-forming units (CFU/g)” value ([3]; 30% w/w glucosylglycerol, 0 days) was 300,000 CFU/g. The “Colony-forming units (CFU/g)” value ([3]; 30% w/w glucosylglycerol, 2 days) was 130,000 CFU/g, the “Colony-forming units (CFU/g)” value ([3]; 30% w/w glucosylglycerol, 7 days) was <1,000 CFU/g and the “Colony-forming units (CFU/g)” value ([3]; 30% w/w glucosylglycerol, 14 days) was <100 CFU/g. The “Colony-forming units (CFU/g)” value ([3]; 30% w/w glucosylglycerol, 21 days) was <100 CFU/g, the “Colony-forming units (CFU/g)” value ([3]; 30% w/w glucosylglycerol, 28 days) was <100 CFU/g and the “Colony-forming units (CFU/g)” value ([3]; 50% w/w glucosylglycerol, 0 days) was 300,000 CFU/g. For the same compound, the “Colony-forming units (CFU/g)” value ([3]; 50% w/w glucosylglycerol, 2 days) was 150,000 CFU/g, the “Colony-forming units (CFU/g)” value ([3]; 50% w/w glucosylglycerol, 7 days) was <1,000 CFU/g and the “Colony-forming units (CFU/g)” value ([3]; 50% w/w glucosylglycerol, 14 days) was <100 CFU/g. The “Colony-forming units (CFU/g)” value ([3]; 50% w/w glucosylglycerol, 21 days) was <100 CFU/g, the “Colony-forming units (CFU/g)” value ([3]; 50% w/w glucosylglycerol, 28 days) was <100 CFU/g and the bactericidal effect [3, 4] was “highly bactericidal effects”.
